Assay results taken from patent US5763443A, “MDR resistance treatment and novel pharmaceutically active riminophenazines” (priority 1994, dated 1998).
Converted amounts (≈) assume the structure as drawn. Where two headings read alike, the source gives them in different places.

Assays:
[1] = test system: multi-drug resistant (MDR) lung carcinoma cell line H69/LX4; assay: cells; conditions: for INCREASED SENSITIVITY H69/Lx4: Table VIII, values equal IC50 NONE / IC50 with VB 25 ng/ml of Table VII, 10080 min; for MDR reversal properties: H69/LX4, with doxorubicin 12,5 ng/ml or vinblastine 25 ng/ml, FIGS. 4 to 7
Method: The riminophenazines of the above formula (I), contain an imino group. […] The potency of compounds of the above general formula, as inhibitors of multi-drug resistance, was assessed by sensitization of a P-glycoprotein positive cell line to drugs associated with this form of resistance. A human small cell lung cancer cell line H 69/P as well as a multi-drug resistance (MDR) sub-line H69/LX4 were used. These cell lines were obtained from the Medical Research Council Clinical Oncology and Radiotherapeutics Unit, Hills Road, Cambridge, England. The H69/LX4 line was selected in vitro by progressive exposure to increasing concentrations of doxorubicin in order to increase P-glycoprotein expression.
The cell lines used were human small cell lung cancer cell line HP69/P and a multi-drug resistant (MDR) sub-line H69/LX4, both of which were supplied by the MRC Clinical Oncology and Radiotherapeutics Unit, Hills Road, Cambridge, England. The maintenance of the cell lines and drug response assays was done as described by Twentyman et al in British Journal of Cancer Volume 65 pages 335-340. The H69/LX4 line was originally described by Twentyman et al in British Journal of Cancer Volume 53, pages 529-637 (1986).
The data in parenthesis represents fold sensitivity compared with the chemotherapeutic agent without the MDR inhibitor.
The results obtained, are illustrated graphically in FIGS. 4 to 7 of the accompanying drawings.
(§1) The general procedure set forth above was followed, i.e. 7 days incubation in the4 presence of doxorubicin at 12,5 ng/ml or vinblastine at 25 or 3 ng/ml.
(§2) The effects were examined over a seven (7) day exposure to different concentrations of B4119 and B4125 on the sensitivity of a doxorubicin resistant leukaemia cell line (K562/MMB) and a lung carcinoma cell line (H69/LX4) to doxorubicin (dox) and vinblastine (VB) using the MTT assay.

[2] = test system: MDR leukaemia cell line K562/MMB; assay: cells; conditions: for INCREASED SENSITIVITY K 562/MMB: Table VIII, values equal IC50 NONE / IC50 with VB 3 ng/ml of Table VII, 10080 min; for MDR activity / sensitivity against cell line K562/MMP: compared with known reference compound B4100
Method: A third cell line (562/MMB) used was a MDR leukemia cell line selected in vitro by progressive exposure to increasing concentrations of vinblastine in order to increase P-glycoprotein expression. This cell line was developed in the Department of Immunology, University of Pretoria from K562 (ATCC CCL 243) supplied by Highveld Biological (Pty) Ltd, Sandton.
as §1, §2

[3] = test system: gram positive microorganisms (Mycobacterium, Enterococcus, Streptococcus, methicillin resistant Staphylococcus); assay: anti-bacterial activity
[4] = bio-availability (no method given)
[5] = Homo sapiens, 168 h, read-out: IC 50 H69/Lx4 NONE
[6] = Homo sapiens, read-out: IC 50 H69/Lx4 DOX 12 ng/ml
[7] = Homo sapiens, read-out: IC 50 H69/Lx4 VB 25 ng/ml
[8] = Homo sapiens, K562, read-out: IC 50 K562/MMB VB 3 ng/ml, Table VII, with vinblastine 3 ng/ml
[9] = Homo sapiens, read-out: IC50 H69/LX4 +VB (25 ng/ml)
[10] = Homo sapiens, read-out: IC50 H69/LX4 +dox (12 ng/ml)
[11] = Homo sapiens, read-out: IC50 H69/LX4 none
[12] = Homo sapiens, K562, 168 h, read-out: IC 50 K562/MMB NONE
[13] = Homo sapiens, K562, read-out: IC50 K562/MMB +VB (3 ng/ml), Table VI, with vinblastine 3 ng/ml
[14] = Homo sapiens, K562, read-out: IC50 K562/MMB +dox (12 ng/ml), Table VI, with doxorubicin 12 ng/ml
[15] = Homo sapiens, K562, read-out: IC 50 K562/MMB DOX 12 ng/ml, Table VII, with doxorubicin 12 ng/ml
[16] = Homo sapiens, K562, read-out: IC50 K562/MMB none

Compound	IC50 [1, 5] [µg/mL]	IC50 [1, 6] [µg/mL]	IC50 [1, 7] [µg/mL]	INCREASED SENSITIVITY H69/Lx4 [1]	IC50 [2, 8] [µg/mL]	INCREASED SENSITIVITY K 562/MMB [2]	MDR activity / sensitivity against cell line K562/MMP [2]	anti-bacterial activity [3]	other results
CC1(C)CC(N=c2cc3n(-c4cc(Cl)cc(Cl)c4)c4ccccc4nc-3cc2Nc2cc(Cl)cc(Cl)c2)CC(C)(C)N1 [Compound B4121, N,5-bis(3,5-dichiorophenyl)-3,5-dihydro-3-[(2',2',6',6'-tetramethyl-4-pipendyl)-imino]-2-phenazinamine]	1.23 (≈ 1.92 µM)	0.524 (≈ 0.819 µM)	0.162 (≈ 0.253 µM)	7.57	0.023 (≈ 0.036 µM)	97.83	increased substantially and unexpectedly	Particularly active	
CC(C)c1ccc(Nc2cc3nc4ccccc4n(-c4ccc(C(C)C)cc4)c-3cc2=NC2CC(C)(C)NC(C)(C)C2)cc1 [Compound B4158, N,5-bis(4-isopropylphenyl)-3,5-dihydro-3-[(2',2',6',6'-tetramethyl-4-piperidyl)-imino]-2-phenazinamine]	0.408 (≈ 0.696 µM)	0.343 (≈ 0.585 µM)	0.124 (≈ 0.212 µM)	3.29		4.69			MDR activity against the cell line H69/LX4 [1]: Reasonably good activity; MDR reversal properties [1]: Very good MDR reversal properties; bio-availability [4]: good bio-availability
CC1(C)CC(N=c2cc3n(-c4cccc(C(F)(F)F)c4)c4ccccc4nc-3cc2Nc2cccc(C(F)(F)F)c2)CC(C)(C)N1 [Compound B4126, N,5-bis(3-trifluoromethyl-phenyl)-3,5-dihydro-3-[(2',2',6',6'-tetramethyl-4-piperidyl)-imino]-2-phenazinamine]	0.699 (≈ 1.1 µM)	0.455 (≈ 0.714 µM)	0.26 (≈ 0.408 µM)	2.69		4.45		Particularly active	
CC1(C)CC(N=c2cc3n(-c4ccccc4Cl)c4ccccc4nc-3cc2Nc2ccccc2Cl)CC(C)(C)N1 [Compound B4125, N,5-bis(2-chlorophenyl)-3,5-dihydro-3-[(2',2',6',6'-tetramethyl-4-piperidyl)-imino]-2-phenazinamine]	0.785 (≈ 1.38 µM)	0.521 (≈ 0.913 µM)	0.399 (≈ 0.699 µM)	1.97	0.026 (≈ 0.0456 µM)	11.96	exceptionally good activity	Particularly active	IC50 [1, 9]: 0.399 µg/mL (≈ 0.699 µM); IC50 [1, 10]: 0.521 µg/mL (≈ 0.913 µM); IC50 [1, 11]: 0.785 µg/mL (≈ 1.38 µM); IC50 [2, 12]: 0.311 µg/mL (≈ 0.545 µM); IC50 [2, 13]: 0.026 µg/mL (≈ 0.0456 µM); IC50 [2, 14]: 0.188 µg/mL (≈ 0.329 µM); IC50 [2, 15]: 0.188 µg/mL (≈ 0.329 µM); IC50 [2, 16]: 0.311 µg/mL (≈ 0.545 µM)
CC1(C)CC(N=c2cc3n(-c4ccc(F)c(Cl)c4)c4ccccc4nc-3cc2Nc2ccc(F)c(Cl)c2)CC(C)(C)N1 [Compound B4119, N,5-bis(3-chloro-4-fluorophenyl)-3,5-dihydro-3-[(2',2',6',6'-tetramethyl-4-piperidyl)-imino]-2-phenazinamine]	0.62 (≈ 1.02 µM)	0.6 (≈ 0.989 µM)	0.109 (≈ 0.18 µM)	5.69	0.189 (≈ 0.312 µM)	1.46		Particularly active	IC50 [1, 9]: 0.109 µg/mL (≈ 0.18 µM); IC50 [1, 10]: 0.6 µg/mL (≈ 0.989 µM); IC50 [1, 11]: 0.62 µg/mL (≈ 1.02 µM); IC50 [2, 12]: 0.276 µg/mL (≈ 0.455 µM); IC50 [2, 13]: 0.189 µg/mL (≈ 0.312 µM); IC50 [2, 14]: 0.147 µg/mL (≈ 0.242 µM); IC50 [2, 15]: 0.147 µg/mL (≈ 0.242 µM); IC50 [2, 16]: 0.276 µg/mL (≈ 0.455 µM)
CC1(C)CC(N=c2cc3n(-c4ccc(Cl)cc4Cl)c4ccccc4nc-3cc2Nc2ccc(Cl)cc2Cl)CC(C)(C)N1 [Compound B4128, N,5-bis(2,4-dichiorophenyl)-3,5-dihydro-3-[(2',2',6',6'-tetramethyl-4-piperidyl)-imino]-2-phenazinamine]	1.23 (≈ 1.92 µM)	0.782 (≈ 1.22 µM)	0.434 (≈ 0.679 µM)	2.82		6.49	increased substantially and unexpectedly		
CC1(C)CC(N=c2cc3n(-c4ccc(Cl)c(Cl)c4)c4ccccc4nc-3cc2Nc2ccc(Cl)c(Cl)c2)CC(C)(C)N1 [Compound B4100, reference compound]	0.798 (≈ 1.25 µM)	0.582 (≈ 0.91 µM)	0.125 (≈ 0.195 µM)	6.38		3.53			
CC1(C)CC(N=c2cc3n(-c4ccc(C(F)(F)F)cc4)c4ccccc4nc-3cc2Nc2ccc(C(F)(F)F)cc2)CC(C)(C)N1 [Compound B4103, N,5-bis(4-trifluoromethylphenyl)-3,5-dihydro-3[(2',2',6',6'-tetramethyl-4-piperidyl)imino]-2-phenazinamine]	0.755 (≈ 1.18 µM)	0.552 (≈ 0.866 µM)	0.145 (≈ 0.227 µM)	5.21		0.69			MDR reversal properties [1]: Very good MDR reversal properties; bio-availability [4]: good bio-availability
CC[C@]1(O)C[C@@H]2CN(CCc3c([nH]c4ccccc34)[C@@](C(=O)OC)(c3cc4c(cc3OC)N(C)[C@H]3[C@@](O)(C(=O)OC)[C@H](OC(C)=O)[C@]5(CC)C=CCN6CC[C@]43[C@@H]65)C2)C1 [Vinblastine, reference compound]									cytotoxicity at 0.025 µg/mL ([1]; Homo sapiens, 168 h, read-out: cytotoxic activity of chemotherapeutic agent at the concentration used with the riminophenazine): < 10%; cytotoxicity at 0.003 µg/mL ([2]; Homo sapiens, K562, 168 h, read-out: cytotoxic activity of chemotherapeutic agent at the concentration used with the riminophenazine): < 10%
CC1(C)CC(N=c2cc3n(-c4ccc(C(F)(F)F)cc4C(F)(F)F)c4ccccc4nc-3cc2Nc2ccc(C(F)(F)F)cc2C(F)(F)F)CC(C)(C)N1 [Compound B4178, N,5-bis(2,4-di-trifluoromethyl-phenyl)-3,5-dihydro-3-[(2',2',6',6'-tetramethylpiperidyl)-imino]phenazinamine]	0.785 (≈ 1.01 µM)	0.521 (≈ 0.673 µM)	0.399 (≈ 0.516 µM)	1.97	0.199 (≈ 0.257 µM)	6.03			IC50 ([2]; Homo sapiens, K562, 168 h, read-out: IC 50 K562/MMB NONE, Table VII, riminophenazine alone, 7 day): 1.02 µg/mL (≈ 1.32 µM); IC50 [2, 15]: 0.919 µg/mL (≈ 1.19 µM)
CC1(C)CC(N=c2cc3n(-c4ccc(Cl)cc4)c4ccc(Cl)cc4nc-3cc2Nc2ccc(Cl)cc2)CC(C)(C)N1 [Compound B4090]	1.5 (≈ 2.48 µM)	1.01 (≈ 1.66 µM)	0.266 (≈ 0.44 µM)	5.64	0.027 (≈ 0.0446 µM)	7.30	exceptionally good activity		
